Laboratory results from the supplement of paper PMC10627819.

What was measured:
[1] = tested on: B. subtilis 168; assay: Bliss interaction score (quartile over a dose matrix) (fitness difference); higher = more antagonism (negative = synergy)
Method in brief: (§1)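 Growth was read as OD595 when cultures entered stationary phase, and each value was divided by the plate's robust no-drug mean and capped at 1. This normalised ratio is the fitness value, and fitness for each single drug came from the combination data. The Bliss score subtracts the expected fitness, taken as the product, from the observed fitness and is given as quartiles across technical, biological and donor/recipient replicates.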

[2] = tested on: S. aureus Newman; assay: as above
Method in brief: as §1

[3] = tested on: S. aureus DSM 20231; assay: as above
Method in brief: as §1

[4] = tested on: S. pneumoniae D39V; assay: as above
Method in brief: as §1

[5] = tested on: B. subtilis 168; assay: fitness (endpoint OD595 vs no drug) (fraction); higher = more growth
Method in brief: (§2)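 Bacterial growth was followed in 384-well plates seeded at OD595 0.01, with 30 µl per well, or 55 µl for S. pneumoniae, in TSB, LB Lennox or CY at 37 °C. OD595 was read every 30 min for 14 h, and each reading had the first reading subtracted as background. Fitness is the background-corrected optical density at entry into stationary phase divided by the robust mean of the no-drug control wells. This ratio is capped at 1.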

[6] = tested on: S. pneumoniae D39V; assay: as above
Method in brief: as §2
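Throughout, for Bliss interaction score (quartile over a dose matrix): first quartile when negative (synergy) and third quartile when positive (antagonism).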

CCC[C@@H]1C[C@@H](C(=O)N[C@@H]([C@H]2O[C@H](SC)[C@H](O)[C@@H](O)[C@H]2O)[C@@H](C)O)N(C)C1 [Lincomycin] + CCC(C)C1C(=O)NC(=C)C(=O)NC(C(=O)NC(CSCC(C(=O)N1)NC(=O)/C(=C/C)/NC(=O)C(C(C)CC)N)C(=O)NC2C(SCC(NC(=O)CNC(=O)C3CCCN3C2=O)C(=O)NC(CCCCN)C(=O)NC4C(SCC(NC(=O)CNC(=O)C(NC(=O)C(NC(=O)C(NC(=O)CNC4=O)C)CC(C)C)CCSC)C(=O)NC(CC(=O)N)C(=O)NC(CCSC)C(=O)NC(CCCCN)C(=O)NC5C(SCC6C(=O)NC(C(=O)NC(CSC(C(C(=O)N6)NC(=O)C(NC5=O)C)C)C(=O)NC(CO)C(=O)NC(C(C)CC)C(=O)NC(CC7=CN=CN7)C(=O)NC(C(C)C)C(=O)NC(=C)C(=O)NC(CCCCN)C(=O)O)CC8=CN=CN8)C)C)C)CC(C)C [Nisin]
main component drawn
Conditions | Bliss interaction score
[1] | 0.0535
[2] | 0.0755
[3] | 0.117
[4] | -0.0491

main component drawn
Conditions | fitness
[5], first compound 0.1 µg/mL, partner 0.5 µg/mL | 0.888
[5], first compound 0.1 µg/mL, partner 1 µg/mL | 0.873
[5], first compound 0.1 µg/mL, partner 2 µg/mL | 0.542
[5], first compound 0.2 µg/mL, partner 0.5 µg/mL | 0.866
[5], first compound 0.2 µg/mL, partner 1 µg/mL | 0.839
[5], first compound 0.2 µg/mL, partner 2 µg/mL | 0.58
[5], first compound 0.4 µg/mL, partner 0.5 µg/mL | 0.903
[5], first compound 0.4 µg/mL, partner 1 µg/mL | 0.876
[5], first compound 0.4 µg/mL, partner 2 µg/mL | 0.643
[6], first compound 0.2 µg/mL, partner 0.4275 µg/mL | 0.751
[6], first compound 0.2 µg/mL, partner 0.855 µg/mL | 0.816
[6], first compound 0.2 µg/mL, partner 1.71 µg/mL | 0.0439
[6], first compound 0.215 µg/mL, partner 3.2 µg/mL | 0.0034
[6], first compound 0.215 µg/mL, partner 6.4 µg/mL | 0.0021
[6], first compound 0.4 µg/mL, partner 0.4275 µg/mL | 0.711
[6], first compound 0.4 µg/mL, partner 0.855 µg/mL | 0.197
[6], first compound 0.4 µg/mL, partner 1.71 µg/mL | 0.03
[6], first compound 0.43 µg/mL, partner 3.2 µg/mL | 0.0144
[6], first compound 0.43 µg/mL, partner 6.4 µg/mL | 0.0124
[6], first compound 0.8 µg/mL, partner 0.4275 µg/mL | 0.188
[6], first compound 0.8 µg/mL, partner 0.855 µg/mL | 0.124
[6], first compound 0.8 µg/mL, partner 1.71 µg/mL | 0.0586
[6], first compound 0.86 µg/mL, partner 1.6 µg/mL | 0.0707
[6], first compound 0.86 µg/mL, partner 3.2 µg/mL | 0.0001
[6], first compound 0.86 µg/mL, partner 6.4 µg/mL | 0.0011

fitness, [5], one replicate, main component drawn
Conditions | partner 1.25 µg/mL | partner 1.6 µg/mL | partner 2.5 µg/mL | partner 3.2 µg/mL | partner 4 µg/mL | partner 5 µg/mL | partner 6.4 µg/mL | partner 8 µg/mL | partner 16 µg/mL
first compound 0.1 µg/mL | – | – | – | – | 0.432 | – | – | 0.0171 | 0.0218
first compound 0.2 µg/mL | – | – | – | – | 0.212 | – | – | 0.0182 | 0.0151
first compound 0.4 µg/mL | 0.885 | 0.635 | 0.621 | 0.0271 | 0.202 | 0.0364 | 0.0378 | 0.0085 | 0.0174
first compound 0.8 µg/mL | 0.858 | 0.572 | 0.573 | 0.0171 | – | 0.065 | 0.035 | – | –
first compound 1.6 µg/mL | 0.836 | 0.571 | 0.356 | 0.0205 | – | 0.0299 | 0.0358 | – | –

CCC[C@@H]1C[C@@H](C(=O)N[C@@H]([C@H]2O[C@H](SC)[C@H](O)[C@@H](O)[C@H]2O)[C@@H](C)O)N(C)C1 [Lincomycin] + CN(C)C(=O)C(CCN1CCC(O)(c2ccc(Cl)cc2)CC1)(c1ccccc1)c1ccccc1 [Loperamide]
Conditions | Bliss interaction score
[1] | -0.175
[2] | -0.0788
[3] | -0.058
[4] | 0.187

Conditions | fitness
[5], first compound 0.1 µg/mL, partner 100 µg/mL | 0.0294
[5], first compound 0.2 µg/mL, partner 100 µg/mL | 0.0794
[5], first compound 0.4 µg/mL, partner 100 µg/mL | 0.0368
[6], first compound 0.2 µg/mL, partner 17.14 µg/mL | 0.799
[6], first compound 0.2 µg/mL, partner 34.28 µg/mL | 0.811
[6], first compound 0.215 µg/mL, partner 20 µg/mL | 0.902
[6], first compound 0.215 µg/mL, partner 40 µg/mL | 0.911
[6], first compound 0.215 µg/mL, partner 80 µg/mL | 0.897
[6], first compound 0.4 µg/mL, partner 17.14 µg/mL | 0.725
[6], first compound 0.4 µg/mL, partner 34.28 µg/mL | 0.685
[6], first compound 0.43 µg/mL, partner 20 µg/mL | 0.827
[6], first compound 0.43 µg/mL, partner 40 µg/mL | 0.83
[6], first compound 0.43 µg/mL, partner 80 µg/mL | 0.809
[6], first compound 0.8 µg/mL, partner 17.14 µg/mL | 0.535
[6], first compound 0.8 µg/mL, partner 34.28 µg/mL | 0.44
[6], first compound 0.86 µg/mL, partner 20 µg/mL | 0.599
[6], first compound 0.86 µg/mL, partner 40 µg/mL | 0.632
[6], first compound 0.86 µg/mL, partner 80 µg/mL | 0.525

[6], partner 68.57 µg/mL, one replicate
Conditions | fitness
first compound 0.2 µg/mL | 0.87
first compound 0.4 µg/mL | 0.769
first compound 0.8 µg/mL | 0.54

CCC[C@@H]1C[C@@H](C(=O)N[C@@H]([C@H]2O[C@H](SC)[C@H](O)[C@@H](O)[C@H]2O)[C@@H](C)O)N(C)C1 [Lincomycin] + CN(C)c1cc(NC(=O)CNC(C)(C)C)c(O)c2c1C[C@H]1C[C@H]3[C@H](N(C)C)C(O)=C(C(N)=O)C(=O)[C@@]3(O)C(O)=C1C2=O [Tigecycline]
Conditions | Bliss interaction score
[1] | -0.076
[2] | 0.0588
[3] | -0.213
[4] | -0.133

fitness
Conditions | first compound 0.1 µg/mL | first compound 0.2 µg/mL | first compound 0.215 µg/mL | first compound 0.4 µg/mL | first compound 0.43 µg/mL | first compound 0.8 µg/mL | first compound 0.86 µg/mL
[5], partner 0.039 µg/mL | 0.894 | 0.865 | – | 0.979 | – | – | –
[5], partner 0.078 µg/mL | 0.953 | 0.861 | – | 0.897 | – | – | –
[5], partner 0.156 µg/mL | 0.924 | 0.867 | – | 0.846 | – | – | –
[6], partner 0.65 µg/mL | – | 0.637 | 0.804 | 0.572 | 0.745 | 0.275 | 0.238
[6], partner 1.3 µg/mL | – | 0.63 | 0.789 | 0.578 | 0.694 | 0.314 | 0.213
[6], partner 2.6 µg/mL | – | 0.618 | 0.802 | 0.572 | 0.648 | 0.186 | 0.156

fitness, [5], one replicate
Conditions | first compound 0.4 µg/mL | first compound 0.8 µg/mL | first compound 1.6 µg/mL
partner 0.125 µg/mL | 0.977 | ≥ 1 | 0.944
partner 0.25 µg/mL | 0.856 | 0.886 | 0.845
partner 0.5 µg/mL | 0.867 | 0.888 | 0.907
